Test results: patent US20250263391A1, “CRYSTALLINE FORM OF TEGAVIVINT, METHOD OF PREPARATION, AND USE THEREOF” (Iterion Therapeutics, Inc., priority 2020, published 2025)
Entries after “also recorded” stand apart in the source; their conditions may differ.

Columns and labels:
Assay type in all cases: physicochemical
[1] = Ball milling of Form I and Form IV: form stability by XRPD; settings: for Form: ball milling in 1% Poloxamer 188 water solution (50 mg/mL)
Protocol: (§1) Therefore, ball milling of Form I and Form IV was performed to evaluate the form stability and particle size growth. The detailed procedure of ball milling was as follows. • 1. Suspend Form I and Form IV sample in 1% Poloxamer 188 water solution (50 mg/mL), separately. • 2. Add ˜12 mL suspension into a 50-mL tube which contained milling beads (the volume of milling beads is around 30 mL). After 12 mL suspension was added, the liquid surface just covered the beads. • 3. Roll the 50-mL tube (containing beads and suspension) at 5° C., RT and 60° C. with 30 rpm. • 4. Sample ˜0.8 mL suspension at 1, 2, 4, 24 h using 1-mL syringe. • 5. Test XRPD, PSD and PLM for the suspension.
For XRPD analysis, PANalytical X'Pert^3 X-ray powder diffractometer was used.

[2] = Ball milling of Form I and Form IV: particle size (PSD)
Protocol: as §1

[3] = Slurry competition of Form I, III, IV and V at high water activity at RT (XRPD of wet cake); settings: mixture of Form I
Protocol: The detailed procedure was as follows: • 1) Prepare saturated solution with Form I sample (803759-01-A) in three solvent systems. • 2) Add about 10 mg of each form into 1 mL corresponding saturated solution. • 3) Slurry and check the XRPD of the wet cake after one day and six days.

[4] = Storage of milled Form I aqueous suspension; settings: milled to a very small particle size
Protocol: as §1

[5] = Form III samples after drying (XRPD)
[6] = Ball milling of Form I and Form IV: aggregation (PLM); settings: after 24 h
Protocol: as §1
PLM images were captured using Axio Scope A1 microscope from Carl Zeiss German.

[7] = Dynamic Vapor Sorption (DVS); settings: 25° C./80% RH
Protocol: DVS was measured via a SMS (Surface Measurement Systems) DVS Intrinsic. The relative humidity at 25° C. were calibrated against deliquescence point of LiCl, Mg(NO3)2 and KCl.

[8] = VT-XRPD of Form IV and exposure to ambient conditions
Protocol: 2) After heating to 75 and 120° C., pure Form VI was observed. […] Thus, Form IV is believed to be a hydrate. For XRPD analysis, PANalytical X'Pert^3 X-ray powder diffractometer was used.

Structure (SMILES): CC1CC(C)CN(S(=O)(=O)c2ccc3c(c2)C(=NO)c2cc(S(=O)(=O)N4CC(C)CC(C)C4)ccc2C3=NO)C1 (stereo not shown) [Form I, (9E,10E)-2,7-bis((3,5-dimethylpiperidin-1-yl)sulfonyl)anthracene-9,10-dione dioxime]
- Form ([1]; 5° C., 1 h, listed as Form 1): Form I
- Form ([1]; 5° C., 2 h, listed as Form 1): Form I
- Form ([1]; 5° C., 4 h, listed as Form 1): Form I
- Form ([1]; 5° C., 24 h, listed as Form 1): Form I
- Form ([1]; 60° C., 1 h, listed as Form 1): Form I
- Form ([1]; 60° C., 2 h, listed as Form 1): Form I
- Form ([1]; 60° C., 4 h): Form I
- Form ([1]; 60° C., 24 h): Form I
- Form ([1]; RT, 1 h, listed as Form 1): Form I
- Form ([1]; RT, 2 h, listed as Form 1): Form I
- Form ([1]; RT, 4 h, listed as Form 1): Form I
- Form ([1]; RT, 24 h, listed as Form 1): Form I
- D 90 ([2]; 5° C., 1 h, listed as Form 1): 9.4 μm
- D 90 ([2]; 5° C., 2 h, listed as Form 1): 9.0 μm
- D 90 ([2]; 5° C., 4 h, listed as Form 1): 5.2 μm
- D 90 ([2]; 5° C., 24 h, listed as Form 1): 5.6 μm
- D 90 ([2]; 60° C., 1 h, listed as Form 1): 22.6 μm
- D 90 ([2]; 60° C., 2 h, listed as Form 1): 6.6 μm
- D 90 ([2]; 60° C., 4 h, listed as Form 1): 5.3 μm
- D 90 ([2]; 60° C., 24 h, listed as Form 1): 2.0 μm
- D 90 ([2]; RT, 1 h, listed as Form 1): 22.4 μm
- D 90 ([2]; RT, 2 h, listed as Form 1): 21.4 μm
- D 90 ([2]; RT, 4 h, listed as Form 1): 14.2 μm
- D 90 ([2]; RT, 24 h, listed as Form 1): 2.8 μm
- Form obtained from slurry competition ([3]; IV and V slurried in ACN/H2O (1:1, v/v) at RT): New form
- Form obtained from slurry competition ([3]; IV and V slurried in ACN/H2O (1:3, v/v) at RT): Form I
- Form obtained from slurry competition ([3]; IV and V slurried in H2O at RT, XRPD after one day and six days): Form IV
- Form conversion during storage [4]: started converting to Form IV
- Particle size growth during storage [4]: unacceptable particle size growth

Structure (SMILES): CC1CC(C)CN(S(=O)(=O)c2ccc3c(c2)C(=NO)c2cc(S(=O)(=O)N4CC(C)CC(C)C4)ccc2C3=NO)C1 (stereo not shown) [Form III, (9E,10E)-2,7-bis((3,5-dimethylpiperidin-1-yl)sulfonyl)anthracene-9,10-dione dioxime]
- Form conversion ([5]; after exposure to ambient condition at RT): Form V
- Form conversion ([5]; after vacuum drying at RT): converted to Form IV

Structure (SMILES): CC1CC(C)CN(S(=O)(=O)c2ccc3c(c2)C(=NO)c2cc(S(=O)(=O)N4CC(C)CC(C)C4)ccc2C3=NO)C1 (stereo not shown) [Form IV, (9E,10E)-2,7-bis((3,5-dimethylpiperidin-1-yl)sulfonyl)anthracene-9,10-dione dioxime]
- Form ([1]; 5° C., 1 h): Form IV
- Form ([1]; 5° C., 2 h): Form IV
- Form ([1]; 5° C., 4 h): Form IV
- Form ([1]; 5° C., 24 h): Form IV
- Form ([1]; 60° C., 1 h): Form IV
- Form ([1]; 60° C., 2 h): form conversion was observed; also recorded: Form I + IV
- Form ([1]; RT, 1 h): Form IV
- Form ([1]; RT, 2 h): Form IV
- Form ([1]; RT, 4 h): Form IV
- Form ([1]; RT, 24 h): form conversion was observed; also recorded: Amorphous
- Form conversion on ball milling ([1]; milled at elevated temperature (60° C.), time not stated): conversion to Form I; also recorded: converted to Form I
- D 90 ([2]; 5° C., 1 h): 33.7 μm
- D 90 ([2]; 5° C., 2 h): 17.4 μm
- D 90 ([2]; 5° C., 4 h): 5.8 μm
- D 90 ([2]; 5° C., 24 h): 9.8 μm
- D 90 ([2]; 60° C., 1 h): 3.9 μm
- D 90 ([2]; 60° C., 2 h): 4.0 μm
- D 90 ([2]; 60° C., 4 h): 2.0 μm
- D 90 ([2]; 60° C., 24 h): 0.6 μm
- D 90 ([2]; RT, 1 h): 6.6 μm
- D 90 ([2]; RT, 2 h): 4.0 μm
- D 90 ([2]; RT, 4 h): 3.4 μm
- D 90 ([2]; RT, 24 h): 5.8 μm
- Aggregation ([6]; 5° C.): Aggregation was observed
- Aggregation ([6]; RT): Aggregation was observed
- water uptake [7]: 9.1%
- Form by VT-XRPD ([8]; after cooling to 30° C.): Form VI was still observed
- Form by VT-XRPD ([8]; after heating to 75 and 120° C.): pure Form VI
- Form by VT-XRPD ([8]; at 30° C. under N2): partially converted to a new form

Structure (SMILES): CC1CC(C)CN(S(=O)(=O)c2ccc3c(c2)C(=NO)c2cc(S(=O)(=O)N4CC(C)CC(C)C4)ccc2C3=NO)C1 (stereo not shown) [Form VI, (9E,10E)-2,7-bis((3,5-dimethylpiperidin-1-yl)sulfonyl)anthracene-9,10-dione dioxime]
- Form conversion ([8]; after exposure to ambient condition): converted to Form IV quickly
